Where two headings read alike, the source gives them in different places.

Holding throughout (format): cell-based
One experiment relates to P. falciparum. Briefly: antimalarial cytotoxicity assay ([3H]hypoxanthine), malaria-infected RBC. Conditions: Plasmodium falciparum. The protocol: FIG. 2 is set of graphs showing the percentage of P. falciparum killed by MACs of the present invention as a function of drug concentration. Malaria-infected RBC were incubated with DP-b99 (A and B).
FIG. 3 is a graph showing the percentage of P. falciparum killed by MACs of the present invention as a function of drug concentration.
Malaria. Because of the importance of calcium signaling in mammalian cells and recent findings that interference with host cell signaling pathways to subvert the host intracellular milieu may be an important mechanism for the malaria parasite's survival, it was thought that MACs might be toxic to malarial parasite within host cells (i.e. RBCs, hepatocytes). It was investigated whether MAC compounds of the present invention would be able to kill intracellular malaria parasites. An established antimalarial cytotoxicity assay developed in Dr. Theresa Shapiro's laboratory (JHU) (Tetrahedron, 1997; 53(1):37-50) was used with the following modifications: (1) Parasitemia was maintained at 0.1% to 5% by thrice weekly change of medium and replenishment of human erythrocytes; (2) [^3H]hypoxanthine (10-30 Ci/mmol, 1.0 mCi/mL was used in aqueous solution, (Perkin-Elmer NET177001MC), diluted to 25 μCi/mL with medium; and as for the trypanosome experiments (3) the cytotoxicity assays for two MAC compounds of the present invention, DP-b99 and DP-460 (DPharm, Ltd., Rehovot Ill.), included 10 concentrations based on stock solutions (50.0 mg/mL) of each compound that were prepared in sterile HPLC-grade water.

In experiment [1] the test system is human brain microvascular endothelial cell (BMEC) monolayers. Nature of the experiment: ECIS transendothelial electrical resistance (TEER) of human BMEC during infection. Conditions: BMEC pretreated with 20 μM DP-b99. The protocol: (§1) FIG. 1 illustrates the effect of MACs of the present invention on human brain microvascular endothelial cell (BMEC) monolayers interaction with trypanosomes. (A) Human BMEC pretreated with 20 μM DP-b99 impeded parasite transmigration across this barrier (t-5 hours, n=3). […] The data are represented as average TEER or migration±S.E. (n=4; p<0.05). (B) BSF trypanosomes were incubated with DP-b99 or DP460. The average percent (n=4) of parasites killed after 24 hours is plotted against drug concentration.
(§2) African Trypanosomes: The MAC compound of the present invention, DP-b99, as a chelator of Ca^2+ and Zn^2+ was tested to determine whether it would tighten the BBB to trypanosome traversal based on the concepts described above. In pilot parasite/BBB transmigration experiments, bloodstream form Trypanosoma brucei rhodesiense (Tbr) IL1852 were incubated in Transwell inserts containing human brain microvascular endothelial cell (BMEC) monolayers pretreated for 60 minutes with DP-b99, then washed free of drug. In a parallel experiment, human BMEC grown on gold-coated electrode ECIS arrays, were similarly treated with the MAC compound. When compared to the untreated control group, T. b. rhodesiense transmigration across a human BMEC barrier was impeded 60% after 5 hours incubation (FIG. 1A). […]

The subject of experiment [2] is T. b. brucei 427 or T. b. rhodesiense IL1852. Briefly: trypanosome cytotoxicity assay in vitro. Conditions: Trypanosoma brucei, by 24 hours, BSF trypanosomes, read-out: effective concentration of drug to kill 50% (EC50) of the parasites. The protocol: as §1, §2
Experiment [3] relates to bloodstream form Trypanosoma brucei rhodesiense (Tbr) IL1852 transmigration across human BMEC barrier. Briefly: parasite/BBB transmigration across human BMEC monolayers in Transwell inserts. Particulars: BMEC pretreated 60 minutes with 20 μM DP-b99, washed free of drug; after 5 hours incubation. The protocol: as §1, §2
Where [4] appears, read: pilot experiments, read-out: concentration range found to kill P. falciparum.

On to `CCCCCCCCOCCOC(=O)CN(CC(=O)O)c1ccccc1OCCOc1ccccc1N(CC(=O)O)CC(=O)OCCOCCCCCCCC` [DP-b99], for which the results for the EC50 (with P. falciparum (setting [4]); in experiment [2]) were 21 to 28 µM and approximately 87 µM, respectively. Moreover, the “barrier tightness of human BMEC during the infection (ECIS TEER)” value in experiment [1] is recorded as “maintained a tighter barrier”. Besides, the “T. b. rhodesiense transmigration across a human BMEC barrier impeded, compared to untreated control” value in experiment [3] worked out at 60%.
`CCCCCCCCCCCCOCCOC(=O)CN(CC(=O)O)c1ccccc1OCCOc1ccccc1N(CC(=O)O)CC(=O)OCCOCCCCCCCCCCCC` [DP-460]: the EC50 in the experiment on P. falciparum (R^2=0.995 (FIG. 3), read-out: EC50, P. falciparum killed) is 28 µM; in the experiment with P. falciparum (setting [4]), 21 to 28 µM; in experiment [2] it was approximately 39 µM.

These data come from patent publication US9415032B2, “Membrane activated chelators and use in the prevention and treatment of parasitic infection” (THE JOHNS HOPKINS UNIVERSITY, priority 2011, dated 2016).
